From the supplement of paper PMC10307832

Tests used:
Assay in all cases: relative viability (nuclei count vs DMSO), 5 days (fraction); higher = more cells survive
[1] = compound: COc1ncc(-c2ccc3nccc(-c4ccnnc4)c3c2)cc1NS(=O)(=O)c1ccc(F)cc1F [Omipalisib] + C[C@@H](Oc1cc(-c2cnn(C3CCNCC3)c2)cnc1N)c1c(Cl)ccc(F)c1Cl [Crizotinib] (partner 1 µM)
Summary of the method: (§1)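 Dosing by pin tool came one day after lung cancer cell lines were seeded in 1536-well plates, using either one drug or a fixed anchor-drug dose plus five library-drug doses (not always all listed) in √10 steps. After 5 days, nuclei were counted on 4× images. Relative viability is treated-well nuclei count divided by vehicle-well nuclei count, and values are medians of duplicate plates.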

[2] = compound: COc1ncc(-c2ccc3nccc(-c4ccnnc4)c3c2)cc1NS(=O)(=O)c1ccc(F)cc1F [Omipalisib] + C[C@]1(O)C[C@@H](c2nc(-c3ccc4ccc(-c5ccccc5)nc4c3)c3c(N)nccn32)C1 [Linsitinib] (partner 1 µM)
Summary of the method: as §1

[3] = compound: COc1ncc(-c2ccc3nccc(-c4ccnnc4)c3c2)cc1NS(=O)(=O)c1ccc(F)cc1F [Omipalisib] + N=C(N)NC(=N)NCCc1ccccc1 [Phenformin] (partner 250 µM)
Summary of the method: as §1

[4] = compound: COc1ncc(-c2ccc3nccc(-c4ccnnc4)c3c2)cc1NS(=O)(=O)c1ccc(F)cc1F [Omipalisib] + COc1cc2c(Oc3ccc(NC(=O)C4(C(=O)Nc5ccc(F)cc5)CC4)cc3F)ccnc2cc1OCCCN1CCOCC1 [Foretinib] (partner 0.25 µM)
Summary of the method: as §1

[5] = compound: COc1ncc(-c2ccc3nccc(-c4ccnnc4)c3c2)cc1NS(=O)(=O)c1ccc(F)cc1F [Omipalisib] + CC(=O)Nc1cccc(-n2c(=O)n(C3CC3)c(=O)c3c(Nc4ccc(I)cc4F)n(C)c(=O)c(C)c32)c1 [Trametinib] (partner 0.02 µM)
Summary of the method: as §1

[6] = compound: COc1ncc(-c2ccc3nccc(-c4ccnnc4)c3c2)cc1NS(=O)(=O)c1ccc(F)cc1F [Omipalisib] + Nc1nc2[nH]cc(CCc3ccc(C(=O)N[C@@H](CCC(=O)O)C(=O)O)cc3)c2c(=O)[nH]1 [Pemetrexed] (partner 0.2 µM)
Summary of the method: as §1

Cell Line	relative viability ([1]; first compound 0.0003 µM)	relative viability ([1]; first compound 0.003 µM)	relative viability ([1]; first compound 0.03 µM)	relative viability ([2]; first compound 0.0003 µM)	relative viability ([2]; first compound 0.003 µM)	relative viability ([2]; first compound 0.03 µM)	relative viability ([3]; first compound 0.0003 µM)	relative viability ([3]; first compound 0.003 µM)	relative viability ([3]; first compound 0.03 µM)	relative viability ([4]; first compound 0.0003 µM)	relative viability ([4]; first compound 0.003 µM)	relative viability ([4]; first compound 0.03 µM)	relative viability ([5]; first compound 0.0003 µM)	relative viability ([5]; first compound 0.003 µM)	relative viability ([5]; first compound 0.03 µM)	relative viability ([6]; first compound 0.0003 µM)	relative viability ([6]; first compound 0.003 µM)	relative viability ([6]; first compound 0.03 µM)
LXF-289	0.846	0.924	0.712	0.961	1	0.793	0.505	0.416	0.396	0.977	0.912	0.626	0.65	0.747	0.407	0.938	1.05	0.804
NCI-H23	0.425	0.263	0.283	0.596	0.397	0.346	0.773	0.635	0.576	0.851	0.681	0.461	0.353	0.244	0.152	0.692	0.44	0.374
NCI-H322M	0.859	0.843	0.532	0.971	0.72	0.506	0.739	0.57	0.453	0.888	0.684	0.566	0.478	0.453	0.416	0.584	0.585	0.452
NCI-H358	0.502	0.6	0.303	0.639	0.457	0.289	0.259	0.211	0.145	0.626	0.591	0.371	0.136	0.115	0.107	0.182	0.164	0.131
NCI-H441	0.462	0.32	0.367	0.569	0.382	0.394	0.703	0.659	0.318	0.761	0.657	0.434	0.474	0.232	0.184	0.294	0.283	0.237
NCI-H460	0.772	0.589	0.132	0.509	0.232	0.0381	0.461	0.24	0.0524	1.04	1.01	0.347	0.0973	0.0781	0.0544	0.0592	0.0512	0.0757
NCI-H520	0.636	0.622	0.193	0.9	0.672	0.275	0.405	0.209	0.2	0.742	0.441	0.226	0.576	0.314	0.172	0.58	0.433	0.184
NCI-H596	0.93	0.561	0.361	0.817	0.517	0.355	0.692	0.445	0.387	0.559	0.485	0.304	0.899	0.494	0.299	0.497	0.586	0.407
NCI-H647	0.979	0.921	0.443	1.11	0.95	0.373	0.402	0.267	0.185	1.16	0.965	0.603	0.341	0.278	0.15	0.189	0.158	0.183
NCI-H650	0.671	0.472	0.338	0.76	0.689	0.47	0.443	0.401	0.332	1.04	0.877	0.613	0.925	0.628	0.393	0.903	0.634	0.453
NCI-H661	0.969	0.94	0.703	0.389	0.439	0.234	0.264	0.264	0.224	1.06	0.999	0.783	0.605	0.454	0.409	0.925	0.9	0.761
NCI-H838	0.767	0.57	0.354	0.902	0.74	0.346	0.566	0.397	0.195	0.953	0.703	0.375	0.494	0.389	0.199	0.25	0.229	0.214
NCI-H1355	0.999	0.653	0.327	0.737	0.584	0.358	0.433	0.351	0.277	0.764	0.643	0.416	0.361	0.263	0.194	1.01	0.868	0.52
NCI-H1437	0.864	0.894	0.702	0.952	0.824	0.404	0.334	0.249	0.333	1.26	1.35	0.918	0.583	0.31	0.209	0.276	0.298	0.27
NCI-H1651	0.749	0.762	0.569	0.931	0.737	0.417	0.274	0.307	0.214	0.664	0.497	0.489	0.712	0.711	0.535	0.55	0.506	0.433
NCI-H1666	0.974	0.743	0.494	0.689	0.719	0.41	0.547	0.559	0.487	0.92	0.819	0.629	0.872	0.592	0.61	0.879	0.892	0.631
NCI-H1734	0.574	0.38	0.213	0.731	0.484	0.359	0.341	0.265	0.183	0.754	0.446	0.268	0.54	0.362	0.288	0.419	0.431	0.402
NCI-H1755	0.848	0.805	0.481	1	0.942	0.516	0.625	0.522	0.457	0.911	0.821	0.51	0.736	0.695	0.356	0.504	0.393	0.402
NCI-H1915	0.841	0.892	0.863	1.08	1.12	1.01	0.368	0.389	0.366	1.05	1.08	0.983	0.273	0.192	0.201	0.545	0.534	0.509
NCI-H1944	1	0.858	0.439	1.21	0.854	0.481	0.183	0.148	0.126	0.811	0.457	0.31	0.355	0.246	0.197	0.626	0.471	0.324
NCI-H1975	0.925	0.736	0.307	0.857	0.614	0.206	0.412	0.292	0.162	0.991	0.672	0.287	0.331	0.207	0.165	0.35	0.3	0.22
NCI-H1993	0.83	0.618	0.63	0.697	0.765	0.589	0.558	0.552	0.586	0.805	0.633	0.594	0.423	0.584	0.509	0.529	0.478	0.513
NCI-H2009	0.989	0.923	0.742	1.13	1.18	0.946	0.511	0.487	0.316	1.15	1.07	0.922	0.278	0.16	0.184	1.04	1.15	0.892
NCI-H2023	0.569	0.407	0.18	0.513	0.342	0.234	0.379	0.275	0.164	0.908	0.433	0.233	0.492	0.358	0.149	0.208	0.197	0.139
NCI-H2085	0.789	0.886	0.407	0.786	0.737	0.275	0.869	0.429	0.303	0.95	0.884	0.26	0.456	0.255	0.257	0.986	0.855	0.406
NCI-H2087	0.795	0.935	0.734	1.15	0.909	0.854	0.43	0.267	0.289	1.17	0.809	0.557	0.18	0.163	0.142	0.646	0.558	0.597
NCI-H2126	0.965	0.866	0.559	0.712	0.644	0.422	0.489	0.425	0.292	1.01	0.718	0.342	0.487	0.397	0.327	0.652	0.537	0.38
NCI-H2228	0.335	0.337	0.215	0.724	0.282	0.211	0.258	0.142	0.122	0.957	0.74	0.25	0.505	0.187	0.173	0.351	0.306	0.221
NCI-H2347	0.827	0.685	0.293	0.892	0.947	0.61	0.329	0.226	0.244	0.905	0.699	0.454	0.245	0.252	0.215	0.45	0.484	0.445
